Values quoted from earlier work as cited in patent publication US20060204445A1, “Cell scaffold matrices with image contrast agents” (priority 2005, published 2006).

Conditions: in vivo

normal half-life of heparin: 1 to 2 h
Substance: heparin
